# Test results from patent publication US9980972B2, “Rho kinase inhibitors for use in treating familial amyotrophic lateral sclerosis” (GEORG-AUGUST-UNIVERSITÄT GÖTTINGEN STIFTUNG ÖFFENTLICHEN …, priority 2012, dated 2018).
# Assays:
# [1] = test system: SOD1 G93A mouse model of ALS; assay: Survival (age at death) in SOD1 G93A mouse model of ALS; format: in vivo; conditions: for survival proportions over time: non-differentiated by gender
# Text: High-copy B6SJL-Tg(SOD1*G93A)1Gur/J were obtained from Jackson Labs (Stock Number 002726; Bar Harbor, USA) that had originally been produced by Gurney et al. (Gurney, Pu et al. 1994). The colony was maintained by crossing C57BL/6 males harboring the transgene with wild-type SJL females. To verify presence of the transgene in the F1 progeny, tail biopsies were collected from 14-day-old pups and genotyped using PCR. At the age of 35-45 days mice were moved to the testing facility to acclimate to the new environment with a 12-h light/dark cycle before being assigned to a study.
# At 50 days (presymptomatic, d50) or 80 days of age (symptomatic, d80) mice were separated into Fasudil-30 (Fas30)- and Fasudil-100 (Fas100)-Treatment or Vehicle Control (Veh) groups. Prior to any treatment, groups were constituted so as to minimize between-group variability by using the following criteria. Groups were balanced with respect to gender and body weight within gender. In addition, groups were age-matched and littermate-matched. […] The study was observer-blinded.
# To reach sufficient CSF levels of Fasudil the inventors administered Fasudil (LC Labs, Woburn, USA; product number F-4660) at a low concentration of […] (Fas30) or at a high concentration of 50 mg (Fas100) in 100 ml drinking water. Control groups received the respective amount of isotonic drinking water termed as vehicle (Veh).
# Chronic oral treatment with a low dose of Fasudil (F30) or a high dose of Fasudil (F100) was started either presymptomatically at day 50 or symptomatically at day 80 and continued until death.
# Survival. Date and cause of death were recorded for each mouse. For humane reasons, animals are closely monitored and sacrificed as moribund prior to actual death using criteria for severe moribundity. To determine duration of survival reliably and humanely, the moribund state, defined as the inability of mice to right themselves 30 seconds after being placed on a side (a neurological score of 4) was used. The moribund mice were scored as “dead”, and were euthanized using carbon dioxide.
# The data were then analyzed using Kaplan-Meier survival fit analysis with the Log-Rank and Wilcoxon tests for statistical significance. Cox proportional hazards analysis was also performed to determine hazard ratios and test for statistical significance of their differences using the Effect Likelihood Chi Square test. Statistical analyses were performed using Statistica 9.1 (StatSoft, Hamburg, Germany). P-values less than 0.05 were taken to be statistically significant.
# The criteria to terminate the therapy study (later referred to as time of death) were fulfilled if the animals had reached the terminal neurological scoring or had lost a defined percentage of the maximal body weight. This time point then reflects the survival time of the animals whereas disease duration was measured from onset of disease until time of death.
# [2] = test system: spinal cord microglia of SOD1 G93A mice; assay: Microglia morphology subclassification in lumbar spinal cord; format: in vivo, mouse
# Text: For the evaluation of microglia morphology at least 10 randomly chosen cells per ventral horn were examined with a 63× objective. Cells were classified as “thin ramified”, “stouter ramified” and “rounded” according to a recent morphologic description by Graeber et al. (Graeber, M. B. (2010) Science 330(6005): 783-788). A ramified cell was defined as a cell that has at least 2 processes that are at least twice the size of cell body. Thin ramified cells were defined to have a small diameter of ramifications (<0.5 μm) and a small cell soma diameter (<5 μm). Stoutly ramified cells were defined with thicker ramifications (>0.5 μm) and a larger cell soma diameter (>5 μm).
# In order to further characterize the differential microglial behaviour in the treatment groups at d100, we performed a morphologic subclassification of microglial cells, as described above under the heading “Quantitative evaluation of spinal cord motoneurons and astroglia, sciatic nerve axons and NMJ”. […] The latter two morphologic cell types are considered to reflect a state of enhanced microglial activation in comparison to a surveillance type which is characterized by smaller cell bodies and thin ramified processes (exemplary microscopic images are shown in FIG. 21 C).
# [3] = test system: mono-cultures of primary motoneurons; assay: Kainic acid toxicity in motoneuron mono-culture; format: cell-based
# [4] = test system: spinal cord motoneurons of SOD1 G93A mice; assay: ChAT positive motoneurons in lumbar spinal cord sections; format: in vivo, mouse; conditions: for ChAT cell numbers per lumbar spinal cord section / motoneuron count: time of death; for ChAT cell numbers per lumbar spinal cord section: vehicle 6.1±0.95
# Method: After deep anaesthesia, mice were transcardially perfused with PBS solution followed by 4% paraformaldehyde. Spinal cords, sciatic nerves and gastrocnemius muscles were removed. Spinal cords and gastrocnemius muscles were then postfixed for 2 h in 4% paraformaldehyde. Thereafter, the tissue was dehydrated in 30% sucrose overnight and kept at -20° C. until further processing. Coronal sections of the lumbar spinal cord (L3-L6) (20 μm) and horizontal sections of the tibial muscle (35 μm) were prepared using a Leica Kryostat and collected on gelatine-coated glass slides. Spinal cord sections selected for immunohistochemical processing were first rehydrated. Then antigen-retrieval was performed for 4 h in TBS at 60° C. for later GFAP or Iba1 labeling and for 30 min in sodium citrate (pH 9.0) at 80° C. for later ChAT labeling. […] The primary antibodies (anti-ChAT 1:100, AB144 P, Millipore; anti-GFAP 1:200, DAKO; anti-Iba1 1:500, WAKO, Osaka, Japan) were applied at 4° C. for one night for GFAP and for three nights for ChAT. The secondary antibodies (Cy3 anti-goat or Cy2/Dylight anti rabbit; both Dianova) were applied on separate sections 1:300 for 1 h at room temperature. […] In order to quantify motoneuron numbers in coronal cryosections from the lumbar spinal (L3-L6) cord first the area of the ventral horn was defined according to the criteria from Kong et al. (Kong and Xu 1998). […] At least five sections per mouse spinal cord that were 100 μm apart over a length of at least 500 μm isolated from the lumbar spinal cord were counted. In the d50 treatment group analyzed at death, a total of 20 mice was counted from the vehicle (3 male, 3 female), Fas30 (3 male, 3 female), Fas100 (3 male, 3 female) and wildtype (1 male, 1 female) group. In the […] treatment group analyzed at death, a total of 20 mice was counted from the vehicle (3 male, 3 female), Fas30 (3 male, 3 female), and Fas100 (3 male, 3 female) and wildtype (1 male, 1 female) group. In the d50 treatment group analyzed at […], a total of 20 mice was counted from the vehicle (3 male, 3 female), Fas30 (3 male, 3 female), Fas100 (3 male, 3 female) and wildtype (1 male, 1 female) group.
compound,measurement,setting,value
"O=S(=O)(c1cccc2cnccc12)N1CCCNCC1 [Fasudil, 1-(5-isoquinolinesulfonyl)homopiperazine]",average survival,"[1]; female, presymptomatic (d50) treatment, Fas30 (30 mg/kg/day in drinking water), control 130.4 days",141.8 days
same,survival,"[1]; male, presymptomatic (d50), Fas30",trend in prolongation of survival
same,survival proportions over time,"[1]; presymptomatic (d50), Fas30",profited significantly from the treatment
same,survival proportions over time,"[1]; symptomatic (d80), Fas30",did not show a statistically significant difference
same,survival proportions over time,"[1]; symptomatic (d80), Fas100 (100 mg/kg/day)",did not show a statistically significant difference
same,survival effect,"[1]; presymptomatic (d50), Fas100, compared with Fas30",less prominent
same,survival,"[1]; symptomatic treatment start, female or male group",not able to prolong survival
same,rounded microglia,"[2]; d100, Fasudil 30, vehicle SOD1G93A 0.7±0.2%",0.5±0.1%
same,microglia with stout ramified processes,"[2]; d100, Fasudil 30, vehicle SOD1G93A 46.7±6.3%",70.8±5.3%
same,microglia with thin ramifications,"[2]; d100, Fasudil 30, vehicle SOD1G93A 52.6±6.3%",28.7±5.3%
same,microglial morphology,"[2]; disease end-stage, all treatment groups",no gross alterations
same,survival of KA exposed motoneurons,[3],effectively protecting
same,motoneuron numbers differentiated by cell body size,"[4]; day 100, female, Fas30 vs transgenic vehicle, trend not significant",more motoneurons in all size groups
same,cumulative cell body size per anterior horn section,"[4]; day 100, female, Fasudil vs vehicle",defined trend to be larger
same,numbers of ChAT positive motoneurons,"[4]; day 100, female, presymptomatic Fas30 vs transgenic vehicle",strong trend of elevated numbers of motoneurons
same,ChAT cell numbers per lumbar spinal cord section,"[4]; female, presymptomatic F100 (high dose)",7.3±1.00
same,ChAT cell numbers per lumbar spinal cord section,"[4]; female, presymptomatic Fas30",8.6±0.36
same,motoneuron count,"[4]; female, symptomatic treatment groups",did not differ
same,motoneuron count,"[4]; male, presymptomatic Fas30 or Fas100",did not profit
same,motoneuron count,"[4]; male, symptomatic Fas30 vs vehicle",higher motoneuron numbers
